Laboratory results as given in publication PMC5165251, “Rivaroxaban-Induced Hemorrhage Associated with ABCB1 Genetic Defect” (Frontiers in Pharmacology, 2016).
“Also recorded” adds a separate entry of the source. Where two headings read alike, the source gives them in different places.

How the values were obtained:
[1] = parameters: method as in Lee et al., 2015; conditions: in vivo; ref Lee et al., 2015; cited from earlier work
CYP3A4/5 [2] = conditions: in vitro; ref Lee et al., 2015; cited from earlier work
P-gp = conditions: in vitro; ref Lee et al., 2015; cited from earlier work
CYP3A4/5 [3] = test: CYP3A4/5 phenotyping with midazolam as probe; conditions: patient, 8 days after hospital admission, concomitant atorvastatin 40 mg q.d.
Protocol: Midazolam was used as a probe to measure the joint activity of CYP3A4/5 as previously described ([Bosilkovska et al., 2014]). Phenotyping was performed 8 days after hospital admission with concomitant treatment of insulin, enoxaparin 60 mg b.i.d., atorvastatin 40 mg q.d.

CYP3A4/5 [4] = conditions: ref Bosilkovska et al., 2014, cited from earlier work
Factor Xa = biological target: T1, Factor Xa (Homo sapiens, UniProt P00742); test: Anti-Xa activity, chromogenic assay (DiXal kit) in patient plasma; type: in vivo; conditions: patient on 20 mg q.d.
T1 construct: purchased Hyphen Biomed, Neuville-Sur-Oise, France
Protocol: Anti-Xa activity was measured with a chromogenic assay using the DiXal® kit (Hyphen Biomed, Neuville-Sur-Oise, France) and a BCS XP instrument (Siemens, Marburg, Germany). This method has a limit of detection of 10 ng/ml. No information is given by the manufacturer regarding the limit of quantification (LOQ). However, previous studies have shown a LOQ of 20–30 ng/ml ([Douxfils et al., 2013]). The accuracy and precision calculated from the quality controls (QCs) were 107.0 and 8.8%, respectively, ([Asmis et al., 2012]). An excellent correlation between this method and liquid chromatography-tandem mass spectrometry (LC-MS/MS) has been shown (Spearman correlation coefficient of 0.96) ([Douxfils et al., 2013]).

[5] = Rivaroxaban plasma concentrations by LC-MS/MS in the patient; type: in vivo, human
Protocol: Rivaroxaban determination was performed using a fully validated LC-MS/MS method according to guidelines of the US Food and Drug Administration and the International Conference on Harmonization. The method was accurate and precise across the dynamic range of 0.5–1000 ng/ml. The LOQ was 0.5 ng/ml. The mean precision and accuracy, calculated from the QCs, were 10.2 and 112%, respectively.
A plasma sample of 40 μl was processed by protein precipitation extraction using acetonitrile (200 μL). Separation was performed on a C18 column (50 mm × 2.1 mm ID; 2.6 μm particle size) and under gradient conditions using formic acid 10 mM in water and formic acid 10 mM in acetonitrile. Detection was by tandem-MS in positive mode using a Qtrap API 6500 from AB sciex (Ontario, Canada) using rivaroxaban-d4 as internal standard (20 ng/ml).

[6] = Case report: laboratory testing at hospital admission under rivaroxaban; type: in vivo, human; conditions: 3 months on rivaroxaban 20 mg q.d., normal range 140–180 g/l
[7] = parameters: method as in Mueck et al., 2014; conditions: ref Mueck et al., 2014, cited from earlier work
Mdr1a/Mdr1b/Bcrp = tested on: Mdr1a/Mdr1b/Bcrp; parameters: method as in Gong et al., 2013; conditions: 4 h after administration; ref Gong et al., 2013; cited from earlier work
[8] = parameters: method as in Grillo et al., 2012; conditions: PBPK simulation, concurrent renal impairment plus erythromycin, elderly; ref Grillo et al., 2012; cited from earlier work
[9] = parameters: method as in Moore et al., 2014; conditions: moderate renal impairment plus erythromycin vs normal renal function, rivaroxaban 10 mg alone; ref Moore et al., 2014; cited from earlier work
[10] = parameters: method as in Mueck et al., 2013; conditions: healthy volunteers, ref Mueck et al., 2013, cited from earlier work
[11] = with ketoconazole 200 mg q.d. vs rivaroxaban alone
[12] = with ketoconazole 400 mg q.d. vs rivaroxaban alone

T1 sequence (P00742 235-488 limits assumed): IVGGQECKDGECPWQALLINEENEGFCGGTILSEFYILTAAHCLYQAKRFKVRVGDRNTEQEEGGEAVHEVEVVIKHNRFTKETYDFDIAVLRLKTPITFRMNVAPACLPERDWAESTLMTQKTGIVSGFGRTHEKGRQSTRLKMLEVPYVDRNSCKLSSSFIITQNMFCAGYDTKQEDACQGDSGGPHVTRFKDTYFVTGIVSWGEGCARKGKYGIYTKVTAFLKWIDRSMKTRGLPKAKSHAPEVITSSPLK
T1 sequence (P00742 41-179 partner limits assumed): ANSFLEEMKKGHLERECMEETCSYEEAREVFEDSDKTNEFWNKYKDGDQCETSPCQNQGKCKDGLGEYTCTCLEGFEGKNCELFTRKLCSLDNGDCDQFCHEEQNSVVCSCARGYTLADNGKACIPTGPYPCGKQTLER

For `CC(C)c1c(C(=O)Nc2ccccc2)c(-c2ccccc2)c(-c2ccc(F)cc2)n1CC[C@@H](O)C[C@@H](O)CC(=O)O` [atorvastatin], the “Impact on nifedipine pharmacokinetics” value [1] is listed as “no impact”, the “Inhibition of CYP3A4/5 activity” value (CYP3A4/5 [2]) is listed as “inhibited” and the “Inhibition of P-gp activity” value (P-gp) is listed as “not P-gp activity”.

For `Cc1ncc2n1-c1ccc(Cl)cc1C(c1ccccc1F)=NC2` [midazolam], the OH-midazolam/midazolam metabolic ratio (CYP3A4/5 [3]) is listed as 0.31, the OH-midazolam/midazolam metabolic ratio (CYP3A4/5 [4]; healthy volunteers in the presence of a CYP inhibitor (voriconazole)) is listed as 0.22 and the OH-midazolam/midazolam metabolic ratio (CYP3A4/5 [4]; healthy volunteers without enzyme inhibitor/inducer) is listed as 0.50.

With `O=C(NC[C@H]1CN(c2ccc(N3CCOCC3=O)cc2)C(=O)O1)c1ccc(Cl)s1` [rivaroxaban] the Anti-Xa activity (Factor Xa; 24 h after the last rivaroxaban dose) was 231 ng/mL, the Anti-Xa activity (Factor Xa; 48 h after the last rivaroxaban dose) was 110 ng/mL and the Anti-Xa activity (Factor Xa; 60 h after the last rivaroxaban dose) was 81 ng/mL. For the same compound, the Anti-Xa activity (Factor Xa; 72 h after the last rivaroxaban dose) was 66 ng/mL, the Anti-Xa activity (Factor Xa; 84 h after the last rivaroxaban dose) was 66 ng/mL and the Anti-Xa activity (Factor Xa; 96 h (4 days) after the last rivaroxaban dose) was 34 ng/mL. For the same compound, the Rivaroxaban plasma concentrations ([5]; 48 h after the last rivaroxaban dose, patient on 20 mg q.d., LC-MS/MS) was 88.3 ng/mL, the Rivaroxaban plasma concentrations ([5]; 96 h (4 days) after the last rivaroxaban dose, patient on 20 mg q.d., LC-MS/MS) was 35.6 ng/mL and the half-life ([5]; human, plasma, oral, 20 mg q.d. Patient, homozygous ABCB1 variant carrier, moderate acute renal failure, read-out: Estimated half-life) was 24 to 30 h. The concentration at 48 h ([5]; human, plasma, oral, 20 mg q.d., 48 h after the last rivaroxaban dose, patient on 20 mg q.d., LC-MS/MS) was 88 ng/mL, the concentration at 72 h ([5]; human, plasma, oral, 20 mg q.d., 72 h after the last rivaroxaban dose, patient on 20 mg q.d., LC-MS/MS) was 70.5 ng/mL and the concentration at 96 h ([5]; human, plasma, oral, 20 mg q.d., 96 h (4 days) after the last rivaroxaban dose, patient on 20 mg q.d., LC-MS/MS) was 36 ng/mL. The “Estimated half-life relative to usually reported” value ([5]; patient vs usually reported half-life) was 2–3 times, the Hemoglobin level [6] was 70 g/L and the half-life ([7]; old patients) was 11 to 13 h. For the same compound, the Oral bioavailability [7] was 80–100%, the “Part of the dose eliminated as unchanged drug in the urine” value [7] was “more than one third; also recorded: About one third” and the “Increase in plasma concentration, triple knockout vs wild type mice” value (Mdr1a/Mdr1b/Bcrp) was 1.7 fold. The “Increase in rivaroxaban exposure” value [8] was 2.5–3 fold, the “Increase in rivaroxaban AUC” value [9] was “approximately 99%” and the “Increase in rivaroxaban Cmax” value [9] was about 64%. The “Increase in rivaroxaban AUC” value [10, 11] was 82%, the “Increase in rivaroxaban Cmax” value [10, 11] was 53% and the “Increase in rivaroxaban AUC” value [10, 12] was 158%. The “Increase in rivaroxaban Cmax” value [10, 12] was 72%.
